Consider two compounds from patent US20230293526A1, “METHOD FOR TREATING CANCER WITH A REVERSE TRANSCRIPTASE INHIBITOR” (PrimeFour Therapeutics, Inc., priority 2020, published 2023).

Common to all, as to assay type: cell-based
For one test, the system named is PBMC. The test can be described thus: Cell proliferation Ex.3.
The next test has as its system SKNSH. The test can be described thus: Cell proliferation Ex.3. The note with it: Homo sapiens, SK-N-SH. How it is done: (§1) A dose response relationship on cell proliferation was assessed for Compound 13 on 140 tumor cell lines. […] Cells were cultured in the appropriate media. For the assays, cells were seeded in white cell culture-treated flat and clear bottom multiwell plates and incubated at 37° C. overnight before compound was added. […] dependent on the medium, cell plates were equilibrated to room temperature for one hour, CellTiterGlo reagent (Promega) was added and luminescence was measured approximately an hour later using a luminometer. Raw data were converted into percent cell viability relative to the high and low control, which were set to 10000 and 000, respectively.

Another test deals with CASKI. The test can be described thus: Cell proliferation Ex.3. As to conditions: Homo sapiens, Ca-Ski. The procedure: as §1
The next test concerns MINO. As to the kind of experiment: Cell proliferation Ex.3. As to conditions: Homo sapiens. How it is done: as §1
The next test deals with A431. The test can be described thus: Cell proliferation CellTiterGlo Ex.2. As to conditions: Homo sapiens, A-431; A431 (Skin), 72 h. The procedure: (§2) A dose response relationship on cell proliferation was assessed for Compound 13 on 140 tumor cell lines. Briefly, compound treatment of cells started one day after seeding with a final DMSO concentration of 0.100, and was performed by nanodrop-dispensing using a Tecan Dispenser. 0.10% DMSO (solvent) and Staurosporine (10 μM) served as high control (10000 viability) and low control (000 viability), respectively. Compound 13 was tested at 10, 3, 1, 0.3, 0.1, 0.03, 0.01, and 0.003 μM.
(§3) Cells were cultured in the appropriate media. For the assays, cells were seeded in white cell culture-treated flat and clear bottom multiwell plates and incubated at 37° C. overnight before compound was added. After incubation for 72 h at 37° C. at 5% or 10% CO2 dependent on the medium, cell plates were equilibrated to room temperature for one hour, CellTiterGlo reagent (Promega) was added and luminescence was measured approximately an hour later using a luminometer.
(§4) Raw data were converted into percent cell viability relative to the high and low control, which were set to 10000 and 000, respectively.

For the next test, the system named is U251MG. The test can be described thus: Cell proliferation CellTiterGlo Ex.2. As to conditions: Homo sapiens, U-251; U251MG (Brain), 72 h. How it is done: as §2, §3, §4
The next test deals with SK-BR-3. As to the kind of experiment: Cell proliferation CellTiterGlo Ex.2. The note with it: Homo sapiens; SK-BR-3 (Breast), 72 h. How it is done:
as §2, §3, §4

A further test relates to SK-LU-1. The test can be described thus: Cell proliferation CellTiterGlo Ex.2. As to conditions: Homo sapiens; SK-LU-1 (Lung), 72 h. The procedure:
as §2, §3, §4

A further test deals with LP-1. The test can be described thus: Cell proliferation CellTiterGlo Ex.2. The note with it: Homo sapiens; LP-1 (Blood), 72 h. The procedure:
as §2, §3, §4

The test system of another test is A498. The test can be described thus: Cell proliferation CellTiterGlo Ex.2. As to conditions: Homo sapiens; A498 (Kidney), 72 h. How it is done: as §2, §3, §4
The subject of a further test is HCC 1569. As to the kind of experiment: Cell proliferation CellTiterGlo Ex.2. The note with it: Homo sapiens, HCC1569; HCC 1569 (Breast), 72 h. How it is done: as §2, §3, §4
Another test deals with M07e. As to the kind of experiment: Cell proliferation CellTiterGlo Ex.2. As to conditions: M-07e; M07e (Blood), 72 h. How it is done: as §2, §3, §4
The subject of another test is BEN. The test can be described thus: Cell proliferation CellTiterGlo Ex.2. The note with it: BEN (Lung), 72 h. The procedure:
as §2, §3, §4

The test system of another test is P31/FUJ. The test can be described thus: Cell proliferation CellTiterGlo Ex.2. The note with it: Homo sapiens; P31/FUJ (Blood), 72 h. The procedure:
as §2, §3, §4

The subject of another test is EFO-27. The test can be described thus: Cell proliferation CellTiterGlo Ex.2. As to conditions: Homo sapiens; EFO-27 (Ovary), 72 h. How it is done:
as §2, §3, §4

The next test relates to MV4-11. The test can be described thus: Cell proliferation CellTiterGlo Ex.2. As to conditions: Homo sapiens; MV4-11 (Blood), 72 h. The procedure: as §2, §3, §4
The next test concerns T84. The test can be described thus: Cell proliferation CellTiterGlo Ex.2. The note with it: Homo sapiens; T84 (Colon), 72 h. How it is done:
as §2, §3, §4

For another test, the system named is MDA MB 435. As to the kind of experiment: Cell proliferation CellTiterGlo Ex.2. The note with it: Homo sapiens; MDA MB 435 (Skin), 72 h. How it is done:
as §2, §3, §4

The test system of the next test is SCH. The test can be described thus: Cell proliferation CellTiterGlo Ex.2. As to conditions: SCH (Stomach), 72 h. How it is done:
as §2, §3, §4

The test system of the next test is K562. As to the kind of experiment: Cell proliferation CellTiterGlo Ex.2. As to conditions: Homo sapiens; K562 (Blood), 72 h. How it is done: as §2, §3, §4
The next test concerns U-266. The test can be described thus: Cell proliferation CellTiterGlo Ex.2. The note with it: Homo sapiens; U-266 (Blood), 72 h. The procedure:
as §2, §3, §4

The test system of a further test is NALM-6. As to the kind of experiment: Cell proliferation CellTiterGlo Ex.2. As to conditions: Homo sapiens; NALM-6 (Blood), 72 h. The procedure:
as §2, §3, §4

Another test has as its system NCI-H1573. The test can be described thus: Cell proliferation CellTiterGlo Ex.2. As to conditions: Homo sapiens; NCI-H1573 (Lung), 72 h. How it is done:
as §2, §3, §4

In a further test the test system is 786-O. As to the kind of experiment: Cell proliferation CellTiterGlo Ex.2. The note with it: Homo sapiens, 786-0; 786-O (Kidney), 72 h. How it is done: as §2, §3, §4
The test system of the next test is SK-ES-1. The test can be described thus: Cell proliferation CellTiterGlo Ex.2. As to conditions: Homo sapiens, SK-ES1; SK-ES-1 (Bone), 72 h. The procedure: as §2, §3, §4
A further test deals with HL-60. As to the kind of experiment: Cell proliferation CellTiterGlo Ex.2. As to conditions: Homo sapiens; HL-60 (Blood), 72 h. The procedure:
as §2, §3, §4

Another test relates to AsPC-1. The test can be described thus: Cell proliferation CellTiterGlo Ex.2. As to conditions: Homo sapiens, ASPC1; AsPC-1 (Pancreas), 72 h. The procedure:
as §2, §3, §4

The next test concerns NCI-H1437. As to the kind of experiment: Cell proliferation CellTiterGlo Ex.2. The note with it: Homo sapiens; NCI-H1437 (Lung), 72 h. The procedure: as §2, §3, §4
Another test has as its system HEC-1-B. The test can be described thus: Cell proliferation CellTiterGlo Ex.2. As to conditions: Homo sapiens; HEC-1-B (Endometrium), 72 h. The procedure:
as §2, §3, §4

The test system of another test is COV434. As to the kind of experiment: Cell proliferation CellTiterGlo Ex.2. The note with it: COV434 (Ovary), 72 h. The procedure: as §2, §3, §4

A value given as a limit tells only on which side of the number the result lay.

On to `C#C[C@]1(CO)O[C@@H](n2cc(F)c(N)nc2=O)C[C@@H]1O` [compound 9], for which the concentration for half-maximal inhibition (IC50) in the test on PBMC (72 h), in the test with PBMC (120 h), with PBMC (168 h), with SKNSH (72 h), in the test with SKNSH (120 h) and in the test with SKNSH (168 h) was over 10 µM throughout. In addition, the IC50 in the test on CASKI (72 h) is over 10 µM; in the test with CASKI (120 h), over 10 µM; with CASKI (168 h), over 10 µM; in the test on MINO (72 h), 0.34 µM; in the test with MINO (120 h), 0.049 µM; with MINO (168 h), 0.065 µM.
With `C#C[C@]1(CO)O[C@@H](n2cnc3c(=O)[nH]c(N)nc32)C[C@@H]1O` [compound 13], the IC50 in the test on A431 is 5.06 µM; with U251MG it was over 10 µM; in the test with SK-BR-3, over 10 µM; in the test on SK-LU-1, over 10 µM; in the test with LP-1 it was 3.15 µM; in the test on A498, over 10 µM. Moreover, the half-inhibitory concentration (IC50) in the test with HCC 1569 was over 10 µM; in the test with M07e, 4.07 µM; in the test on BEN it was over 10 µM; in the test with P31/FUJ, 0.4 µM; in the test with EFO-27, 9.9 µM; in the test with MV4-11 it was 0.21 µM. For the same compound, the IC50 in the test with T84 is over 10 µM; in the test with MDA MB 435 it was over 10 µM; in the test on SCH, 0.29 µM; in the test with K562, over 10 µM; with U-266 it was over 10 µM; in the test on NALM-6 it was 0.25 µM. In addition, the 50% inhibitory concentration (IC50) in the test with NCI-H1573 was 8.59 µM; in the test on 786-O, 5.81 µM; in the test on SK-ES-1, 4.99 µM; in the test with HL-60 it was 1.13 µM; in the test with AsPC-1 it was over 10 µM; in the test with NCI-H1437 it was over 10 µM. Besides, the 50% inhibitory concentration (IC50) is over 10 µM in the test on HEC-1-B and 4.41 µM in the test on COV434.
